Measured values published in ChEMBL document CHEMBL1140357, “Discovery of hydroxamic acid analogs as dual inhibitors of phosphodiesterase-1 and -5” (Bioorg Med Chem Lett, 2005).

Legend:
[1] = biological target: cGMP-specific 3',5'-cyclic phosphodiesterase (Homo sapiens, UniProt O76074); experiment: Inhibitory concentration against Phosphodiesterase type 5
Phosphodiesterase 1 = Phosphodiesterase 1 (Homo sapiens, UniProt P54750+Q01064+Q14123); experiment: Inhibitory concentration against Phosphodiesterase type 1; assay type: protein assay
Phosphodiesterase 3 = Phosphodiesterase 3 (Homo sapiens, UniProt Q14432+Q13370); experiment: Inhibitory concentration against Phosphodiesterase type 3; assay type: protein assay
Rattus norvegicus = organism: Rattus norvegicus; experiment: Effective concentration required for vasodilatory effect in isolated vessel of rat; assay type: functional

| Structure (SMILES) | IC50 [1] | IC50 (Phosphodiesterase 1) | IC50 (Phosphodiesterase 3) | EC50 (Rattus norvegicus) |
| --- | --- | --- | --- | --- |
| CCc1cc(C(C)=O)c(O)cc1OCc1cccc(C(=O)NC(CO)CC(=O)O)n1 (stereo not given) | 9460 nM | – | – | – |
| O=C(O)Cc1cccc(NC(=O)c2cccc(COc3ccccc3)n2)n1 | 9430 nM | > 10 µM | – | – |
| CCCCCCCC(=O)OCC(NC(=O)c1cccc(COc2cc(O)c(C(C)=O)cc2CC)n1)C(=O)O (stereo not given) | 3280 nM | – | – | – |
| O=C(Cc1cccc(NC(=O)c2cccc(COc3ccccc3)n2)n1)NO | 40 nM | > 10 µM | – | – |
| COc1ccc(NC(=O)c2cccc(COc3ccccc3)n2)cc1C(=O)NO | 3500 nM | > 10 µM | – | – |
| O=C(Cc1csc(NC(=O)Cc2cccc(C(F)(F)F)c2)n1)NO | 2070 nM | > 10 µM | – | – |
| O=C(Cc1cccc(NC(=O)c2cccc(COc3ccccc3)n2)c1)NO | 13 nM | 2.41 µM | – | – |
| CCC(C(=O)Nc1nc(CC(=O)NO)cs1)c1ccccc1 (stereo not given) | 6190 nM | > 10 µM | – | – |
| CCc1cc(C(C)=O)c(O)cc1OCc1cccc(C(=O)NC(Cc2cnc[nH]2)C(=O)OC)n1 (stereo not given) | 9070 nM | – | – | – |
| O=C(Nc1nc(C2(C(=O)NO)CC2)cs1)c1cccc(COc2ccccc2)n1 | 890 nM | 0.63 µM | – | – |
| O=C(Cc1csc(NC(=O)COc2ccc(Cl)cc2)n1)NO | 1690 nM | 1.81 µM | – | – |
| Cc1cccc(C(=O)Nc2nc(CC(=O)NO)cs2)c1Br | 8430 nM | 3.87 µM | – | – |
| COc1ccc2c(c1)C(CC(=O)Nc1nc(CC(=O)NO)cs1)CC2=O (stereo not given) | 3160 nM | > 10 µM | – | – |
| O=C(Cc1csc(NC(=O)Nc2cccc3ccccc23)n1)NO | 3810 nM | > 10 µM | – | – |
| O=C(Cc1csc(NC(=O)c2ccccn2)n1)NO | 3200 nM | 7.1 µM | – | – |
| CCc1cc(C(C)=O)c(O)cc1OCc1cccc(C(=O)NC(C)C(=O)NO)n1 (stereo not given) | 350 nM | – | – | – |
| O=C(Nc1nc(C(Cc2ccccc2)C(=O)NO)cs1)c1cccc(COc2ccccc2)n1 (stereo not given) | 830 nM | 1.36 µM | – | – |
| O=C(Cc1csc(NC(=O)c2cccc(C(=O)c3ccccc3)c2)n1)NO | 3410 nM | 1.72 µM | – | – |
| O=C(O)CCC(C(=O)O)c1csc(NC(=O)c2cccc(COc3ccccc3)n2)n1 (stereo not given) | 10000 nM | > 10 µM | – | – |
| CCc1cc(C(C)=O)c(O)cc1OCc1cccc(C(=O)NC(CO)CC(=O)OC)n1 (stereo not given) | 3100 nM | – | – | – |
| CCOC(=O)CC(NC(=O)c1cccc(COc2cc(O)c(C(C)=O)cc2CC)c1)C(=O)OCC (stereo not given) | 650 nM | – | – | – |
| CCc1cc(C(C)=O)c(O)cc1OCc1cccc(C(=O)NC(O)CC(=O)OC)n1 (stereo not given) | 6070 nM | – | – | – |

| Structure (SMILES) | IC50 [1] | IC50 (Phosphodiesterase 1) | IC50 (Phosphodiesterase 3) | EC50 (Rattus norvegicus) |
| --- | --- | --- | --- | --- |
| CCc1cc(C(C)=O)c(O)cc1OCc1cccc(C(=O)Nc2nc(CC(=O)O)cs2)c1 | 630 nM | – | – | – |
| CCc1cc(C(C)=O)c(O)cc1OCc1cccc(C(=O)N[C@H](C)C(=O)O)n1 | 1030 nM | – | – | – |
| Cc1sc(NC(=O)c2cccc(COc3ccccc3)n2)nc1CC(=O)NO | 40 nM | 4.52 µM | – | – |
| O=C(Cc1csc(NC(=O)C2C=CN(c3ccccc3)c3ccccc32)n1)NO (stereo not given) | 790 nM | 0.38 µM | – | – |
| CCc1cc(C(C)=O)c(O)cc1OCc1cccc(C(=O)NC(CO)(CO)CO)n1 | 8910 nM | – | – | – |
| Cc1c(NC(=O)c2cccc(COc3ccccc3)n2)cccc1C(=O)NO | 2660 nM | > 10 µM | – | – |
| CCc1cc(C(C)=O)c(O)cc1OCc1cccc(C(=O)NC(C(=O)OC)C(C)O)n1 (stereo not given) | 3350 nM | – | – | – |
| CCc1cc(C(C)=O)c(O)cc1OCc1cccc(C(=O)NCCC(=O)O)n1 | 270 nM | – | – | – |
| O=C(Cc1csc(NC(=O)c2cnc3ccccc3n2)n1)NO | 1840 nM | > 10 µM | – | – |
| COc1ccc2c(c1)c(CC(=O)Nc1nc(CC(=O)NO)cs1)c(C)n2C(=O)c1ccc(Cl)cc1 | 1280 nM | 2.8 µM | – | – |
| CCc1cc(C(C)=O)c(O)cc1OCc1cccc(C(=O)NC(C)C(=O)O)c1 (stereo not given) | 130 nM | – | – | – |
| CCc1cc(C(C)=O)c(O)cc1OCc1cccc(C(=O)N(CCCCCCCCC(N)=O)C(C)CC)n1 (stereo not given) | 3300 nM | – | – | – |
| O=C(Nc1nc(C2(C(=O)NO)CCOCC2)cs1)c1cccc(COc2ccccc2)n1 | 2490 nM | 2.93 µM | – | – |
| CCc1cc(C(C)=O)c(O)cc1OCc1cccc(C(=O)NC(C(=O)O)C(C)C)n1 (stereo not given) | 1240 nM | – | – | – |
| O=C(Cc1csc(NC(=O)c2ccccc2)n1)NO | 3250 nM | > 10 µM | – | – |
| O=C(Cc1csc(NC(=O)c2cccc3ccccc23)n1)NO | 1100 nM | 1 µM | – | – |
| O=C(Cc1csc(NC(=O)c2cnccc2Oc2ccc(Cl)cc2)n1)NO | 320 nM | 2.67 µM | – | – |
| CCc1cc(C(C)=O)c(O)cc1OCc1cccc(C(=O)Nc2ccc(OCC(=O)O)cc2)n1 | 3100 nM | – | – | – |
| CCc1cc(C(C)=O)c(O)cc1OCc1cccc(C(=O)Nc2nc(CC(=O)NO)cs2)n1 | 26 nM | 0.087 µM | 1.3 µM | 900 nM |
| Cc1nc(NC(=O)c2cccc(COc3ccccc3)n2)sc1C(=O)O | 4990 nM | 4.48 µM | – | – |
| CCc1cc(C(C)=O)c(O)cc1OCc1cccc(C(=O)NC2COC(=O)C2)n1 (stereo not given) | 7820 nM | – | – | – |
| CCCCCCC(C(=O)NO)c1csc(NC(=O)c2cccc(COc3ccccc3)n2)n1 (stereo not given) | 230 nM | 5.7 µM | – | – |

Now from value to molecule:

| IC50 [1] | IC50 (Phosphodiesterase 1) | IC50 (Phosphodiesterase 3) | EC50 (Rattus norvegicus) | Structure (SMILES) |
| --- | --- | --- | --- | --- |
| 3680 nM | – | – | – | CCc1cc(C(C)=O)c(O)cc1OCc1cccc(C(=O)NC(Cc2ccc(O)cc2)C(=O)O)n1 (stereo not given) |
| 270 nM | 0.2 µM | – | – | CCCCC(C(=O)NO)c1csc(NC(=O)c2cccc(COc3ccccc3)n2)n1 (stereo not given) |
| 9280 nM | > 10 µM | – | – | O=C(O)CCC(CCC(=O)O)(C(=O)O)c1csc(NC(=O)c2cccc(COc3ccccc3)n2)n1 |
| 8620 nM | – | – | – | CCc1cc(C(C)=O)c(O)cc1OCc1cccc(C(=O)NC(CO)C(=O)OCc2ccccc2)n1 (stereo not given) |
| 5150 nM | – | – | – | CCc1cc(C(C)=O)c(O)cc1OCc1cccc(C(=O)Nc2nn[nH]n2)n1 |
| 2640 nM | – | – | – | CCc1cc(C(C)=O)c(O)cc1OCc1cccc(C(=O)NC(CO)CCC(=O)OC)n1 (stereo not given) |
| 10000 nM | > 10 µM | – | – | O=C(O)Cc1cccc(NC(=O)c2cccc(COc3ccccc3)n2)c1 |
| 1470 nM | > 10 µM | – | – | O=C(NO)c1cccc(NC(=O)c2cccc(COc3ccccc3)n2)n1 |
| 4520 nM | > 10 µM | – | – | O=C(Cc1csc(NC(=O)CCC(=O)c2ccccc2)n1)NO |
| 140 nM | 8 µM | – | – | O=C(Cc1csc(NC(=O)c2ccc3ccccc3n2)n1)NO |
| 2420 nM | 3.9 µM | – | – | CC(C)C(C(=O)NO)c1csc(NC(=O)c2cccc(COc3ccccc3)n2)n1 (stereo not given) |
| 4580 nM | > 10 µM | – | – | CCCCCCC(C(=O)O)c1csc(NC(=O)c2cccc(COc3ccccc3)n2)n1 (stereo not given) |
| 7650 nM | – | – | – | CCc1cc(C(C)=O)c(O)cc1OCc1cccc(C(=O)NCCCCCC(=O)O)n1 |
| 6490 nM | > 10 µM | – | – | CCCCC(C(=O)O)c1csc(NC(=O)c2cccc(COc3ccccc3)n2)n1 (stereo not given) |
| 10000 nM | > 10 µM | – | – | O=C(Nc1nc(C(Cc2ccccc2)C(=O)O)cs1)c1cccc(COc2ccccc2)n1 (stereo not given) |
| 770 nM | > 10 µM | – | – | Cc1nc(NC(=O)c2cccc(COc3ccccc3)n2)sc1C(=O)NO |
| 460 nM | – | – | – | CCc1cc(C(C)=O)c(O)cc1OCc1cccc(C(=O)N[C@@H](C)C(=O)O)n1 |
| 8580 nM | > 10 µM | – | – | O=C(Nc1nc(C2(C(=O)O)CC2)cs1)c1cccc(COc2ccccc2)n1 |
| 1450 nM | – | – | – | CCc1cc(C(C)=O)c(O)cc1OCc1cccc(C(=O)NC(CC(=O)O)c2ccccc2)n1 (stereo not given) |
| 2200 nM | > 10 µM | – | – | O=C(NO)C(=O)c1csc(NC(=O)c2cccc(COc3ccccc3)n2)n1 |
| 190 nM | 0.92 µM | > 10 µM | 3900 nM | O=C(Cc1csc(NC(=O)c2cccc(COc3ccccc3)n2)n1)NO |

| IC50 [1] | IC50 (Phosphodiesterase 1) | IC50 (Phosphodiesterase 3) | EC50 (Rattus norvegicus) | Structure (SMILES) |
| --- | --- | --- | --- | --- |
| 5470 nM | > 10 µM | – | – | CN(C)c1cccc(C(=O)Nc2nc(CC(=O)NO)cs2)c1 |
| 870 nM | – | – | – | C=CCN(CCC(=O)O)C(=O)c1cccc(COc2cc(O)c(C(C)=O)cc2CC)n1 |
| 1800 nM | > 10 µM | – | – | CCCCCCCCCCCC(=O)Nc1nc(CC(=O)NO)cs1 |
| 2580 nM | > 10 µM | – | – | COc1cc(OC)c(OC)c(C(=O)Nc2nc(CC(=O)NO)cs2)c1 |
| 5990 nM | > 10 µM | – | – | COc1ccc2c(c1)OC(=O)CC2CC(=O)Nc1nc(CC(=O)NO)cs1 (stereo not given) |
| 520 nM | 0.67 µM | – | – | CC(C)(C(=O)NO)c1csc(NC(=O)c2cccc(COc3ccccc3)n2)n1 |
| 5620 nM | > 10 µM | – | – | O=C(Cc1csc(NC(=O)COc2ccccc2)n1)NO |
| 1210 nM | – | – | – | CCc1cc(C(C)=O)c(O)cc1OCc1cccc(C(=O)N(CC)CCCCCCCCC(N)=O)n1 |
| 620 nM | 3.94 µM | – | – | CC(C)CC(C(=O)NO)c1csc(NC(=O)c2cccc(COc3ccccc3)n2)n1 (stereo not given) |
| 2130 nM | – | – | – | CCc1cc(C(C)=O)c(O)cc1OCc1cccc(C(=O)NC(C)C(=O)OC)c1 (stereo not given) |
| 920 nM | – | – | – | CCc1cc(C(C)=O)c(O)cc1OCc1cccc(C(=O)NCC(=O)O)c1 |
| 3190 nM | – | – | – | CCc1cc(C(C)=O)c(O)cc1OCc1cccc(C(=O)NCC(O)c2ccc(O)cc2)n1 (stereo not given) |
| 1830 nM | > 10 µM | – | – | Cc1cc(C)cc(C(=O)Nc2nc(CC(=O)NO)cs2)c1 |
| 6250 nM | > 10 µM | – | – | CC(C)CC(C(=O)O)c1csc(NC(=O)c2cccc(COc3ccccc3)n2)n1 (stereo not given) |
| 1900 nM | 4.5 µM | – | – | O=C(Cc1csc(NC(=O)CCCCCc2ccccc2)n1)NO |
| 4250 nM | > 10 µM | – | – | O=C(Cc1csc(NC(=O)c2ccc(Cl)cc2Cl)n1)NO |
| 430 nM | 1.72 µM | – | – | O=C(Cc1csc(NC(=O)c2cccc(SC(F)(F)F)c2)n1)NO |
| 10000 nM | > 10 µM | – | – | O=C(Nc1nc(C2(C(=O)O)CCOCC2)cs1)c1cccc(COc2ccccc2)n1 |
| 6680 nM | – | – | – | CCC(=O)OCC(NC(=O)c1cccc(COc2cc(O)c(C(C)=O)cc2CC)n1)C(=O)O (stereo not given) |
| 7560 nM | > 10 µM | – | – | O=C(Cc1csc(NC(=O)c2ccccc2F)n1)NO |
| 680 nM | – | – | – | CCc1cc(C(C)=O)c(O)cc1OCc1cccc(C(=O)NC(CO)C(=O)O)c1 (stereo not given) |
